From patent US12162888B2, “Carboxamides as ubiquitin-specific protease inhibitors” (Valo Early Discovery, Inc., priority 2018, dated 2024)
Like-named read-outs stand apart in the source and are kept apart here.

Molecular target: T1, USP25 (USP25-His6, Boston Biochem E-546) (Homo sapiens, UniProt Q9UHP3)
T1 construct: His6 (C); purchased Boston Biochem E-546
T1 sequence (Q9UHP3 1-1055): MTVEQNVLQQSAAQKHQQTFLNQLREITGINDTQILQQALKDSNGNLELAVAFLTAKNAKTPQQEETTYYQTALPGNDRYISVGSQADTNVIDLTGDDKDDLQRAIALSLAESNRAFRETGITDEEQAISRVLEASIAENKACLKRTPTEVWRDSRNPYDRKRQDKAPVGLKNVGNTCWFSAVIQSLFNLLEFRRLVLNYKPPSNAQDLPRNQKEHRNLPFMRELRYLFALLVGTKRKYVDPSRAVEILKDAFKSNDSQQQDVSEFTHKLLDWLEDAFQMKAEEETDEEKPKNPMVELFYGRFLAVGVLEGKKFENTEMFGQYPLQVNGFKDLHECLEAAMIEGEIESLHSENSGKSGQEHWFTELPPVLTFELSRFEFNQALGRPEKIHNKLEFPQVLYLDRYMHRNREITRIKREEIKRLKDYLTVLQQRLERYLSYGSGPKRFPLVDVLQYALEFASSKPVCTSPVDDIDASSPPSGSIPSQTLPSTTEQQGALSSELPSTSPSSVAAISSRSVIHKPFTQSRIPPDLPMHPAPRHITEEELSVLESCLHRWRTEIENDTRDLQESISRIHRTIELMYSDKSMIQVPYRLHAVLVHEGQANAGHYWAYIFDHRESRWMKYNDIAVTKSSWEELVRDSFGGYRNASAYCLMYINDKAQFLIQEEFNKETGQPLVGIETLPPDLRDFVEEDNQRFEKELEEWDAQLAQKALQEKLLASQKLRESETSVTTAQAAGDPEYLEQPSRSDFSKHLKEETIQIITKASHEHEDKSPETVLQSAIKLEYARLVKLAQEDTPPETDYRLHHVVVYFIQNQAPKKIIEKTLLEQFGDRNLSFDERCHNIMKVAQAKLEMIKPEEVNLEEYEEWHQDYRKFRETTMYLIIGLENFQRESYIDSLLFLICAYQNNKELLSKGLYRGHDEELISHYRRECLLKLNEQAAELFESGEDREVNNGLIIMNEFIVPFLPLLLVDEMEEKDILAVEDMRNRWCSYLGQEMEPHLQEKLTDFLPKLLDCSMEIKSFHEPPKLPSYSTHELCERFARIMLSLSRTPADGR
Assay: Ubiquitin-Rhodamine 110 Assay for USP25 Activity, Example A-3
Assay type: biochemical
Conditions: Ubiquitin-Rhodamine 110 assay, Example A-3
Summary of the method: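 USP25-His6 ([…] final as stated) preincubated 30 min with compound (10-point, 25 μM to 1.3 nM), then Ub-Rh110 at 25 nM (<<Km) added in pH 8.0 Tris buffer with BME, BGG and Triton X-100. Reaction stopped after 45 min at room temperature with 10 mM citric acid; fluorescence read at 485/535 nm.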

[1] = biochemical IC50 range, read-out: USP25 A-3

| Structure (SMILES) | IC50 (read-out: USP25 A-3 IC50 range) | IC50 [1] |
| --- | --- | --- |
| Cc1ccc2c(N)c(C(=O)N[C@H]3COc4cc(N5CCNCC5)ccc4[C@@H]3C)sc2n1 (single isomer, unassigned) [Example 11-17] | > 2000 nM |  |
| Cc1ccc2c(N)c(C(=O)N[C@H]3CCc4c(F)c(N5CC6CCC(C5)N6)cc(F)c4C3)sc2n1 (single isomer, unassigned) [Example 22-5] | 1 to 50 nM |  |
| Cc1ccc2c(N)c(C(=O)N[C@H]3COc4cc(N5CCNCC5)ccc4[C@H]3C)sc2n1 (single isomer, unassigned) [Example 11-15] | > 2000 nM |  |
| Cc1cnc2c(N)c(C(=O)N[C@@H]3CCc4c(C#N)c(N5CCNCC5)cc(F)c4C3)sc2n1 (single isomer, unassigned) [Example 14-11] | 200 to 2000 nM |  |
| Cc1ccc2c(N)c(C(=O)N[C@H]3CCc4c(F)c(N5CC6CCC(C5)N6)cc(F)c4C3)sc2n1 (single isomer, unassigned) [Example 603] |  | 1 to 50 nM |
| Cc1nc2sc(C(=O)N[C@H]3CCc4c(C#N)c(N5CC6CCC(C5)N6)cc(F)c4C3)c(N)c2s1 (single isomer, unassigned) [Example 14-21] | 50 to 200 nM |  |
| O=C(N[C@H]1COc2cc(N3CCNCC3)ccc2C1)c1ccc(NCc2cccc(Cl)c2Cl)nc1 [Example 699, 6-{[(2,3-dichlorophenyl)methyl]amino}-N-[(3R)-7-(piperazin-1-yl)-3,4-dihydro-2H-1-benzopyran-3-yl]pyridine-3-carboxamide] |  | 1 to 50 nM |
| COC[C@@]1(C)CN(c2ccc3c(n2)CC[C@H](NC(=O)c2sc4nc(C)ccc4c2N)C3)C[C@H]1N [Example 343, 3-amino-N-[(6S)-2-[(3S,4S)-4-amino-3-(methoxymethyl)-3-methylpyrrolidin-1-yl]-5,6,7,8-tetrahydroquinolin-6-yl]-6-methylthieno[2,3-b]pyridine-2-carboxamide] | 200 to 2000 nM |  |
| Cc1ccc2c(N)c(C(=O)N[C@H]3CCc4c(C#N)c(N5CCNCC5)cc(F)c4C3)sc2n1 (single isomer, unassigned) [Example 14-10] | 200 to 2000 nM |  |
| Cc1cnc2c(N)c(C(=O)N[C@H]3CCc4cc(N5CCNCC5)cc(F)c4C3)sc2n1 (single isomer, unassigned) [Example 11-38] | 200 to 2000 nM |  |
| CO[C@H]1CN(c2ccc3c(c2)CC[C@H](NC(=O)c2sc4nc(C)ccc4c2N)C3)C[C@H]1N [Example 144, 3-amino-N-[(2S)-6-[(3R,4S)-3-amino-4-methoxypyrrolidin-1-yl]-1,2,3,4-tetrahydronaphthalen-2-yl]-6-methylthieno[2,3-b]pyridine-2-carboxamide] |  | 200 to 2000 nM |
| Cc1ccc2c(N)c(C(=O)N[C@H]3COc4cc(N5C[C@H](N)[C@](C)(CF)C5)ccc4C3)sc2n1 [Example 658, 3-amino-N-[(3R)-7-[(3R,4R)-4-amino-3-(fluoromethyl)-3-methylpyrrolidin-1-yl]-3,4-dihydro-2H-1-benzopyran-3-yl]-6-methylthieno[2,3-b]pyridine-2-carboxamide] |  | 50 to 200 nM |
| O=C(N[C@H]1COc2cc(N3CCNCC3)ccc2C1)c1ccc(NCc2ccc(Cl)cc2Cl)nc1 [Example 697, 6-{[(2,4-dichlorophenyl)methyl]amino}-N-[(3R)-7-(piperazin-1-yl)-3,4-dihydro-2H-1-benzopyran-3-yl]pyridine-3-carboxamide] |  | 1 to 50 nM |
| Cc1ccc2c(N)c(C(=O)N[C@H]3COc4cc(N5CCNCC5)ccc4[C@@H]3C)sc2n1 (single isomer, unassigned) [Example 11-16] | > 2000 nM |  |
| Cc1cnc2c(N)c(C(=O)N[C@H]3CCc4c(C#N)c(N5CC6CCC(C5)N6)cc(F)c4C3)sc2n1 (single isomer, unassigned) [Example 14-19] | 50 to 200 nM |  |
| CN[C@H]1CN(c2ccc3c(n2)CC[C@H](NC(=O)c2sc4nc(C)ccc4c2N)C3)C[C@H]1CF [Example 441, 3-amino-N-[(6S)-2-[(3R,4R)-3-(fluoromethyl)-4-(methylamino)pyrrolidin-1-yl]-5,6,7,8-tetrahydroquinolin-6-yl]-6-methylthieno[2,3-b]pyridine-2-carboxamide] | > 2000 nM |  |
| CCn1ccc2cc(C(=O)N[C@H]3CCc4nc(N5C[C@@H](COC)[C@@H](N)C5)ccc4C3)cnc21 (single isomer, unassigned) [Example 400] | > 2000 nM |  |

| Structure (SMILES) | IC50 (read-out: USP25 A-3 IC50 range) | IC50 [1] |
| --- | --- | --- |
| Cc1ccc2c(N)c(C(=O)N[C@@H]3COc4cc(N5CCNCC5)ccc4[C@@H]3C)sc2n1 (single isomer, unassigned) [Example 11-18] | 200 to 2000 nM |  |
| Cc1ccc2c(N)c(C(=O)N[C@H]3COc4cc(N5C[C@@H](N)[C@](C)(CF)C5)ccc4C3)sc2n1 [Example 661, 3-amino-N-[(3R)-7-[(3R,4S)-4-amino-3-(fluoromethyl)-3-methylpyrrolidin-1-yl]-3,4-dihydro-2H-1-benzopyran-3-yl]-6-methylthieno[2,3-b]pyridine-2-carboxamide] |  | 50 to 200 nM |
| Cc1ccc2c(N)c(C(=O)N[C@H]3CCc4cc(N5CCNCC5)ccc4C3)sc2n1 (single isomer, unassigned) [Example 11-21] | > 2000 nM |  |
| Cc1nc2sc(C(=O)N[C@@H]3CCc4cc(N5CCNCC5)ccc4C3)c(N)c2s1 (single isomer, unassigned) [Example 11-34] | > 2000 nM |  |
| Cc1ccc2c(N)c(C(=O)N[C@H]3COc4cc(N5C[C@H]6CC[C@@H]5CN6)ncc4C3)sc2n1 [Example 76, N-((R)-7-((1R,4R)-2,5-diazabicyclo[2.2.2]octan-2-yl)-3,4-dihydro-2H-pyrano[3,2-c]pyridin-3-yl)-3-amino-6-methylthieno[2,3-b]pyridine-2-carboxamide] | 50 to 200 nM |  |
| Cc1ccc2c(N)c(C(=O)N[C@@H]3CCc4cc(N5CC6CNCC(C5)O6)cc(F)c4C3)sc2n1 (single isomer, unassigned) [Example 11-40] | 50 to 200 nM |  |
| Cc1ccc2c(N)c(C(=O)N[C@H]3CCc4nc(N5C[C@H](N)[C@@]6(CCOC6)C5)ccc4C3)sc2n1 [Example 437, 3-amino-N-[(6S)-2-[(5R,9R)-9-amino-2-oxa-7-azaspiro[4.4]nonan-7-yl]-5,6,7,8-tetrahydroquinolin-6-yl]-6-methylthieno[2,3-b]pyridine-2-carboxamide] | > 2000 nM |  |
| Cc1cnc2c(N)c(C(=O)N[C@H]3CCc4c(ccc(N5CCNCC5)c4F)C3)sc2n1 (single isomer, unassigned) [Example 21-10] | > 2000 nM |  |
| Cc1cnc2c(N)c(C(=O)N[C@@H]3CCc4cc(N5CCNCC5)cc(F)c4C3)sc2n1 (single isomer, unassigned) [Example 11-37] | > 2000 nM |  |
| Cc1ccc2c(N)c(C(=O)N[C@@H]3CCc4nc(N5C[C@H](CF)[C@H](N)C5)ncc4C3)sc2n1 [Example 446, 3-amino-N-[(6R)-2-[(3S,4S)-3-amino-4-(fluoromethyl)pyrrolidin-1-yl]-5,6,7,8-tetrahydroquinazolin-6-yl]-6-methylthieno[2,3-b]pyridine-2-carboxamide] | > 2000 nM |  |
| Cc1ccc2c(N)c(C(=O)N[C@@H]3CCc4c(C#N)c(N5CC6CCC(C5)N6)cc(F)c4C3)sc2n1 (single isomer, unassigned) [Example 14-18] | > 2000 nM |  |
| CN[C@@H]1CN(c2ccc3c(n2)CC[C@H](NC(=O)c2sc4nc(C)ccc4c2N)C3)C[C@@H]1CF [Example 442, 3-amino-N-[(6S)-2-[(3S,4S)-3-(fluoromethyl)-4-(methylamino)pyrrolidin-1-yl]-5,6,7,8-tetrahydroquinolin-6-yl]-6-methylthieno[2,3-b]pyridine-2-carboxamide] | > 2000 nM |  |
| Cc1cnc2c(N)c(C(=O)N[C@H]3CCc4cc(N5C[C@@H]6C[C@H]5CN6)ccc4C3)sc2n1 (single isomer, unassigned) [Example 11-29] | 200 to 2000 nM |  |
| Cc1ccc2c(N)c(C(=O)N[C@H]3COc4cc(N5C[C@H](N)[C@]6(CCOC6)C5)ccc4C3)sc2n1 [Example 656, 3-amino-N-[(3R)-7-[(5S,9R)-9-amino-2-oxa-7-azaspiro[4.4]nonan-7-yl]-3,4-dihydro-2H-1-benzopyran-3-yl]-6-methylthieno[2,3-b]pyridine-2-carboxamide] |  | 200 to 2000 nM |
| Cc1ccc2c(N)c(C(=O)N[C@H]3CCc4c(C#N)c(N5CC6CCC(C5)N6)cc(F)c4C3)sc2n1 (single isomer, unassigned) [Example 14-17] | 1 to 50 nM |  |
| Cc1ccc2c(N)c(C(=O)N[C@H]3CCc4c(C#N)c(N5CC6CNCC(C5)O6)cc(F)c4C3)sc2n1 (single isomer, unassigned) [Example 14-15] | 1 to 50 nM |  |
